This is an account of results in patent publication US20090318351A1, “METHOD OF TREATING ACUTE ST-ELEVATION MYOCARDIAL INFARCTION WITH A DELTA PKC ANTAGONIST” (priority 2008, published 2009).

Data set [1] in a line: Effect of D-peptides on plasma stability of KAI-9706. The conditions noted are these: All-L, All-D, scrambled or retro-inverso (R/I) carrier and cargo. Here is the method: KAI-9706 was engineered with D-amino acids to determine their impact on peptide composition stability. Unmodified KAI-9706 was compared to a peptide composition with the same amino acid sequence, however the amino acids used were d-enantiomers instead of 1-amino acids. A retro-inverso version and a scrambled version of the peptide composition were also prepared.

Data set [2] in a line: Plasma stability of capped peptides (KAI-9706 modified at amino and carboxy termini). The settings on record: rat. Here is the method:
Plasma stability of capped peptides was compared. KAI-9706 was modified step-wise at its amino and carboxy termini. Plasma stability as measured by the percent of peptide composition remaining after 15 minutes.

The conditions of data set [3]: 100 μg/ml, room temperature, LC/MS. Here is the method: The effect of N-terminal acetylation and C-terminal amidation on compound stability in plasma and serum from rat and human was studied. The compounds were tested in the plasma/serum at a concentration of 100 μg/ml. The solutions were incubated at room temperature, precipitated with 5% TCA, and then the supernatant was neutralized with ammonium acetate. The peptides were then analyzed by LC/MS.

Data set [4] in a line: Stability of linear versus disulfide linked peptides in PBS solution. It counts as physicochemical. The conditions noted are these: conditions described in Example 15 (so in the source), FIGS. 8, 9 and 15. Here is the method:
The peptides were placed in solution at 0.1 mg/ml in PBS (pH 7.4) at 37° C.
Linear and disulfide bond linked versions of PKC-βI and PKC-βII peptide compositions were incubated under the conditions described in Example 15.
In particular, the Asn residues at position 7 of the β-I and β-II peptides and the Gln at position 2 of the β-II peptide. These linear peptide compositions were modified by substituting the Gly immediately C-terminal to the Asn with either Leu in the β-I peptide composition or Gly to Ile in the β-II peptide composition. The Gln at position 2 of the β-II peptide composition was also substituted with a Glu residue. The stability of the peptides was studied under the conditions described in Example 15.

The next data set has as its system rat heart. Kind of data set: Rat heart model (Langendorff assay) of ischemic damage, CK release. The conditions noted are these: Langendorff in vitro post-ischemia model, 10 minutes perfusion, FIG. 16. The procedure:
The ability of the capped composition to inhibit ischemic damage in a rat heat model (Langendorff Assay) was evaluated versus the uncapped form.

For orientation: amount remaining means the share of the starting amount still present when the sample was taken.

“Also recorded” adds a separate entry of the source. Ends that are not written are not given here.

Consider `CC[C@H](C)[C@H](NC(=O)[C@@H]1CCCN1C(=O)[C@H](C)NC(=O)[C@H](CC(=O)O)NC(=O)[C@H](Cc1c[nH]cn1)NC(=O)[C@@H](N)CSSC[C@H](N)C(=O)N[C@@H](Cc1ccc(O)cc1)C(=O)NCC(=O)N[C@@H](CCCNC(=N)N)C(=O)N[C@@H](CCCCN)C(=O)N[C@@H](CCCCN)C(=O)N[C@@H](CCCNC(=N)N)C(=O)N[C@@H](CCCNC(=N)N)C(=O)N[C@@H](CCC(N)=O)C(=O)N[C@@H](CCCNC(=N)N)C(=O)N[C@@H](CCCNC(=N)N)C(=O)N[C@@H](CCCNC(=N)N)C(=O)O)C(=O)NCC(=O)N[C@@H](Cc1ccc(O)cc1)C(=O)N[C@@H](CC(=O)O)C(=O)O` [KAI-9706], for which the “% parent remaining at 15 mins” value in data set [1] stood at 1%. In data set [2], this molecule yielded an amount remaining at 0.25 h of 1%. Regarding Ac-EAVSLKPTGGYGRKKRRQRRR-NH2 [KP-1678], the “stability in human serum” value in data set [3] is listed as “increased stability”. On to “Ac-GEEVIRNISGYGRKKRRQRRR-NH2 [modified linear β-II peptide composition]”, for which the “stability in solution of PKC-βI and PKC-βII peptide compositions” value in data set [4] is listed as “served to stabilize; also recorded: improved stability”. Take “Ac-GKLFIMNLSGYGRKKRRQRRR-NH2 [modified linear β-I peptide composition]”: the “stability in solution of PKC-βI and PKC-βII peptide compositions” value in data set [4] was “served to stabilize; also recorded: stabilized”.

Turning to EAVSLKPTGGYGRKKRRQRRR-NH2 [KP-1633], in data set [3], the “stability in human serum” value was “increased stability”. For the molecule “KAI-1355: truncated version of KAI-9803 in which the carboxy terminal leucine was removed; cargo CSFNSYELGS”, in the data set with rat heart, the “potency in protecting cardiac tissue from ischemia (creatine kinase release)” value is given as “potency comparable to that of the full length KAI-9803”.
